Among the test systems are SW-620 colon; SK-MEL-28 melanoma; HOP-92 NSCLC; MALME-3M melanoma; HT29 colon; 786-0 renal; UO-31 renal; UACC-62 melanoma; RXF 393 renal.
Holding throughout (experiment): inhibition of tumour cell growth, NCI panel, 48 h

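The compound was tested at five concentrations on cells cultured in 96-well plates, with a 48-hour exposure period. At the GI50, growth is halved. Definition used: TGI = concentration required for complete inhibition of growth.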 Bounds are passed on as bounds.

Take `Cc1cc(N(CCC#N)CCC#N)ccc1/C=C/C(=O)Nc1cccc(Cl)c1`: the TGI with SW-620 colon, with SK-MEL-28 melanoma, with HOP-92 NSCLC, in the assay with MALME-3M melanoma, in the assay on HT29 colon and in the assay on 786-0 renal was over 100 µM each time. Further, the TGI with UO-31 renal and with UACC-62 melanoma was over 100 µM in each case.
In the case of `Cc1c(C#N)c(=O)[nH]c(=O)n1CCN1CCN(C(=O)NCCCCCCNC(=O)N2CCN(CCn3c(C)c(C#N)c(=O)[nH]c3=O)CC2)CC1`, the TGI in the assay on SW-620 colon, in the assay with SK-MEL-28 melanoma, with HOP-92 NSCLC, in the assay on HT29 colon, with 786-0 renal and in the assay on RXF 393 renal was over 100 µM in each case. In the assay on UACC-62 melanoma, this molecule returned a TGI of over 100 µM.
`C=C1COC(/C=C(\C)CC/C=C(\C)CCl)C1` (stereo unspecified): the TGI with SW-620 colon, with SK-MEL-28 melanoma, with HOP-92 NSCLC, in the assay with HT29 colon, in the assay with 786-0 renal and with UO-31 renal was over 100 µM in each case. The TGI with RXF 393 renal and with UACC-62 melanoma was over 100 µM each time.
As to `CC(=O)OC1CCn2nnc(CO[Si](C)(C)C(C)(C)C)c21` (stereo unspecified), the TGI with SW-620 colon, with SK-MEL-28 melanoma, in the assay on MALME-3M melanoma, in the assay with HT29 colon, in the assay with 786-0 renal and with UO-31 renal was over 100 µM in each case. The same molecule yielded a TGI in the assay with RXF 393 renal of over 100 µM.
Turning to `CCOC(=O)C(C)(c1cn(C)c2ccccc12)c1cn(C)c2ccccc12`, the TGI in the assay with SW-620 colon, in the assay with SK-MEL-28 melanoma, in the assay with MALME-3M melanoma, with HT29 colon, in the assay on 786-0 renal and with UO-31 renal was over 100 µM in each case. Also, the TGI in the assay with RXF 393 renal and with UACC-62 melanoma was over 100 µM throughout.
With `C=CCc1cc(OC)c2c(c1)C(O)CC(c1ccccc1)O2` (stereo unspecified), the TGI with SW-620 colon, in the assay on SK-MEL-28 melanoma, with HOP-92 NSCLC, with MALME-3M melanoma, in the assay on HT29 colon and in the assay on 786-0 renal was over 100 µM in each case. The TGI with UO-31 renal and in the assay with UACC-62 melanoma was over 100 µM throughout.
On to `CCN(C(=O)N1CCN(c2cc3c(cc2F)c(=O)c(C(=O)O)cn3C2CC2)CC1)c1nc(-c2ccc(C)cc2)cs1`, for which the GI50 with SW-620 colon was 0.653 µM; in the assay with SK-MEL-28 melanoma, 0.687 µM; in the assay on HOP-92 NSCLC, 0.708 µM; in the assay on HT29 colon, 0.332 µM; in the assay on 786-0 renal, 0.954 µM; in the assay on UO-31 renal, 0.322 µM. Besides, the figures for the GI50 in the assay on RXF 393 renal and in the assay on UACC-62 melanoma were 0.38 µM and 0.837 µM, respectively. Also, the TGI with SW-620 colon is over 100 µM; in the assay on SK-MEL-28 melanoma, over 100 µM; with HOP-92 NSCLC it was 2.8 µM; with HT29 colon, over 100 µM; in the assay with 786-0 renal, 10.8 µM; in the assay with UO-31 renal, over 100 µM. Also, the TGI with RXF 393 renal is 4.2 µM; in the assay with UACC-62 melanoma, over 100 µM.
`C[Si](C)(C)OC1(C#N)C2C3CC4C2C(=O)C2C4C3C21` (stereo unspecified): the TGI in the assay on SW-620 colon, in the assay with SK-MEL-28 melanoma, in the assay with MALME-3M melanoma, with 786-0 renal, with UO-31 renal and with RXF 393 renal was over 100 µM in each case. This molecule also had a TGI in the assay with UACC-62 melanoma of over 100 µM.
Consider `COc1cc(C(=O)C/C(CCC(=O)Nc2ccccc2[N+](=O)[O-])=N\NC(=O)CC#N)ccc1O`, for which the TGI with SW-620 colon, in the assay with SK-MEL-28 melanoma, in the assay with MALME-3M melanoma, in the assay on HT29 colon, in the assay on 786-0 renal and in the assay on UO-31 renal was over 100 µM each time. In addition, the TGI with RXF 393 renal and in the assay with UACC-62 melanoma was over 100 µM in each case.
Regarding `c1ccc(SC(CCCCC(Sc2ccccc2)Sc2ccccc2)Sc2ccccc2)cc1`, the TGI in the assay on SW-620 colon, in the assay on SK-MEL-28 melanoma, in the assay with HOP-92 NSCLC, in the assay with 786-0 renal, in the assay with UO-31 renal and with RXF 393 renal was over 100 µM each time. The molecule also registered a TGI with UACC-62 melanoma of over 100 µM.
Turning to `O=C(O)C1(P(=O)(O)O)CC1`, the TGI with SW-620 colon, in the assay on SK-MEL-28 melanoma, in the assay with MALME-3M melanoma, with 786-0 renal, in the assay on UO-31 renal and in the assay on RXF 393 renal was over 100 µM throughout. Also, in the assay with UACC-62 melanoma, the TGI is over 100 µM.
With `COc1cc2c(cc1OC(=O)CC(C)O)C1C(OC2=O)C(OC(C)=O)C=C2CCN(C)[C@H]21` (stereo partly specified), the TGI was over 100 µM in the assay with SW-620 colon; over 100 µM in the assay with SK-MEL-28 melanoma; 44.5 µM with HOP-92 NSCLC; over 100 µM in the assay with HT29 colon; 53.7 µM with 786-0 renal; over 100 µM in the assay on UO-31 renal. The same molecule yielded a TGI in the assay with UACC-62 melanoma of over 100 µM.
With `c1ccc2c(C3NCCc4[nH]cnc43)cccc2c1` (stereo unspecified), the TGI with SW-620 colon, with SK-MEL-28 melanoma, with HOP-92 NSCLC, in the assay on HT29 colon, in the assay with 786-0 renal and with UO-31 renal was over 100 µM throughout. Further, the TGI with RXF 393 renal and in the assay with UACC-62 melanoma was over 100 µM throughout.
